Measured values taken from publication PMC11790914, “Chemogenomics for steroid hormone receptors (NR3)” (Communications Chemistry, 2025).
Where “and” joins values, the source holds several entries; their conditions need not be identical. Identical values can stand only once.

Experiments:
CDK2 = molecular target: T1, CDK2 (Homo sapiens, UniProt P24941); experiment: Liability panel screening by DSF: CDK2; assay type: binding; settings: DSF, 20 µM, n=2; read-out: Mean ΔTM CDK2
T1 construct: made in house
Procedure, shortened: (§1)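 Thermal shift: in-house recombinant protein at 2 µM in 10 mM HEPES pH 7.5 with 500 mM NaCl, SYPRO Orange 1:1000, heated at 3 °C/min to 85 °C in technical duplicates. Tm is the Boltzmann inflection point, reported as ∆Tm in K.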

HEK293T cells [1] = experiment: Cytotoxicity: necrosis induction (red fluorescent dye for permeable plasma membranes); assay type: cell-based; settings: 1 µM, 24 h, necrotic cell count normalized to 0.1% DMSO, single replicates;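 further: compounds applied in DMEM high glucose with 0.1% FCS and 0.1% DMSO, necrotic HEK293T cells counted by red staining of cells whose plasma membranes had become permeable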
BRD4 = molecular target: T2, BRD4 (Homo sapiens, UniProt O60885); experiment: Liability panel screening by DSF: BRD4; assay type: binding; settings: DSF, 20 µM, n=2; read-out: Mean ΔTM BRD4
T2 construct: This panel comprised ten highly ligandable kinases and bromodomains; made in house
Procedure, shortened: as §1

TRIM24 = molecular target: T3, TRIM24 (Homo sapiens, UniProt O15164); experiment: Liability panel screening by DSF: TRIM24; assay type: binding; settings: DSF, 20 µM, n=2; read-out: Mean ΔTM TRIM24
T3 construct: This panel comprised ten highly ligandable kinases and bromodomains; made in house
T3 sequence (O15164 899-1004 limits assumed): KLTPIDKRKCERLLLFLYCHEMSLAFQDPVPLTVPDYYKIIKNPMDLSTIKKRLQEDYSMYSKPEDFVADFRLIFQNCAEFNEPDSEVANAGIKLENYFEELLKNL
Procedure, shortened: as §1

HEK293T cells [2] = experiment: Cytotoxicity: metabolic activity (WST-8 / CCK-8 assay); settings: 1 µM; HEK293T, 24 h; WST-8; normalized to 0.1% DMSO; single replicates
NR3C1 (GR) = settings: cited from earlier work
GSK3B = molecular target: T4, GSK3B (Homo sapiens, UniProt P49841); experiment: Liability panel screening by DSF: GSK3B; assay type: binding; settings: DSF, 20 µM, n=2; read-out: Mean ΔTM GSK3B
T4 construct: made in house
T4 sequence (P49841 whole entry, species assumed): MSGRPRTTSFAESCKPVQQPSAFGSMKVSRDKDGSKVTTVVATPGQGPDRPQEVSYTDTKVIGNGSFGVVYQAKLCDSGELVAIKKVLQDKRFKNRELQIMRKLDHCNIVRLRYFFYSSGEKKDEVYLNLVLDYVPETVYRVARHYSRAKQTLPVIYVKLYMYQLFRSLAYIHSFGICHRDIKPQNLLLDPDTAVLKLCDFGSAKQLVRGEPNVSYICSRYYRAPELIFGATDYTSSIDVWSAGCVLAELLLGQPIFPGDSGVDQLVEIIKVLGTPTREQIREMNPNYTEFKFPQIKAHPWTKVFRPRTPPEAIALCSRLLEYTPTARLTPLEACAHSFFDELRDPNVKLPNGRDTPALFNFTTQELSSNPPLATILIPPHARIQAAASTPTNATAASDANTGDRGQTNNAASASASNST

CSNK1D = molecular target: T5, CSNK1D (Homo sapiens, UniProt P48730); experiment: Liability panel screening by DSF: CSNK1D; assay type: binding; settings: DSF, 20 µM, n=2; read-out: Mean ΔTM CSNK1D
T5 construct: made in house
T5 sequence (P48730 whole entry, species assumed): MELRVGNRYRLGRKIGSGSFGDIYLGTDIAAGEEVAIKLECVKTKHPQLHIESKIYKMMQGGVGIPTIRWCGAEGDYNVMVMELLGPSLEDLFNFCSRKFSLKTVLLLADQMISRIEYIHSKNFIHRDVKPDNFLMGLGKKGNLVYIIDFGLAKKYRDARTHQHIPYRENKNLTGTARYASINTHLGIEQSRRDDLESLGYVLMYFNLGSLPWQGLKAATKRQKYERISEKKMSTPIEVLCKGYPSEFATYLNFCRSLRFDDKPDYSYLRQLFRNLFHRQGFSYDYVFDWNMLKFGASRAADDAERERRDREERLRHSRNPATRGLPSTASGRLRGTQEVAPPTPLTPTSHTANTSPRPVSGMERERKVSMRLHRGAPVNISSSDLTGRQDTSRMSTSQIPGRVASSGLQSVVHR
Procedure, shortened: as §1

HEK293T cells [3] = experiment: Cytotoxicity: growth-rate (change in confluence over 24 h); settings: 1 µM, normalized to 0.1% DMSO control, single replicates (n=1...)
NR3C2 (MR) = settings: cited from earlier work
HEK293T cells [4] = experiment: Cytotoxicity: apoptosis induction (caspase-3/7 DEVD fluorogenic DNA dye); settings: 1 µM; HEK293T, 24 h; apoptotic cell count normalized to 0.1% DMSO; single replicates
[5] = tested on: NF-κB activity in HEK293 NF-κB reporter cells; experiment: NF-kB activity assay (GFP reporter, ionomycin/PMA); assay type: cell-based; settings: for Mean NFκB response: n=3
Procedure, shortened: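 HEK293 NF-κB GFP reporter cells given compound in 0.1% DMSO for 4 h, then stimulated with ionomycin 100 ng/mL plus PMA 10 ng/mL. Imaged every 90 min over 24 h; GFP-positive cell count normalized to confluence, three independent biological replicates.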

BRPF1 = molecular target: T6, BRPF1 (Homo sapiens, UniProt P55201); experiment: Liability panel screening by DSF: BRPF1; assay type: binding; settings: DSF, 20 µM, n=2; read-out: Mean ΔTM BRPF1
T6 construct: This panel comprised ten highly ligandable kinases and bromodomains; made in house
T6 sequence (P55201 628-732 limits assumed): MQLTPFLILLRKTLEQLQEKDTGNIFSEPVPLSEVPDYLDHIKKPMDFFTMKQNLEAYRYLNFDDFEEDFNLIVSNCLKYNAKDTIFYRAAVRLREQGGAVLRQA
Procedure, shortened: as §1

MAPK1 = molecular target: T7, MAPK1 (Homo sapiens, UniProt P28482); experiment: Liability panel screening by DSF: MAPK1; assay type: binding; settings: DSF, 20 µM, n=2; read-out: Mean ΔTM MAPK1
T7 construct: made in house
T7 sequence (P28482 whole entry, species assumed): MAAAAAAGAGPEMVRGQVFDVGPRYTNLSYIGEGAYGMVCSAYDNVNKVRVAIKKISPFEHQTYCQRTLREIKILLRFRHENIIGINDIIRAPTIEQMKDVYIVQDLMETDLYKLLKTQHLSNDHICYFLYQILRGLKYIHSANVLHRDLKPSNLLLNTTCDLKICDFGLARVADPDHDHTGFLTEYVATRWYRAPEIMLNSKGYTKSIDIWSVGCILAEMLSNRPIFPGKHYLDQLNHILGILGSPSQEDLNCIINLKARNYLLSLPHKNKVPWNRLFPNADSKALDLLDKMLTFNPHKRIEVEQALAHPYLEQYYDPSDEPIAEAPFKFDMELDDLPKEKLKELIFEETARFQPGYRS
Procedure, shortened: as §1

AURKA = molecular target: T8, AURKA (Homo sapiens, UniProt O14965); experiment: Liability panel screening by DSF: AURKA; assay type: binding; settings: DSF, 20 µM, n=2; read-out: Mean ΔTM AURKA
T8 construct: made in house
T8 sequence (O14965 1-403): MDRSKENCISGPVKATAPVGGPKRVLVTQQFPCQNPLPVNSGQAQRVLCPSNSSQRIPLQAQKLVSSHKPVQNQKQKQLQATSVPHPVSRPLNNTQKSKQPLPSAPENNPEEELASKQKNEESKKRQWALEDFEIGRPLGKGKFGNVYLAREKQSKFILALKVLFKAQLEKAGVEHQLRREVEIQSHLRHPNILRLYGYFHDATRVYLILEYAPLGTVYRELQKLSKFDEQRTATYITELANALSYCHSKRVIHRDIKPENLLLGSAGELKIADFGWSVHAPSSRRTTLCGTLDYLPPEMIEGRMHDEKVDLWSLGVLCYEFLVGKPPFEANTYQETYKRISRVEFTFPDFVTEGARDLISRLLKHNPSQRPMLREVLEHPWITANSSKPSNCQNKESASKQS
Procedure, shortened: as §1

FGFR3 = molecular target: T9, FGFR3 (Homo sapiens, UniProt P22607); experiment: Liability panel screening by DSF: FGFR3; assay type: binding; settings: DSF, 20 µM, n=2; read-out: Mean ΔTM FGFR3
T9 construct: made in house
T9 sequence (P22607 23-806, species assumed): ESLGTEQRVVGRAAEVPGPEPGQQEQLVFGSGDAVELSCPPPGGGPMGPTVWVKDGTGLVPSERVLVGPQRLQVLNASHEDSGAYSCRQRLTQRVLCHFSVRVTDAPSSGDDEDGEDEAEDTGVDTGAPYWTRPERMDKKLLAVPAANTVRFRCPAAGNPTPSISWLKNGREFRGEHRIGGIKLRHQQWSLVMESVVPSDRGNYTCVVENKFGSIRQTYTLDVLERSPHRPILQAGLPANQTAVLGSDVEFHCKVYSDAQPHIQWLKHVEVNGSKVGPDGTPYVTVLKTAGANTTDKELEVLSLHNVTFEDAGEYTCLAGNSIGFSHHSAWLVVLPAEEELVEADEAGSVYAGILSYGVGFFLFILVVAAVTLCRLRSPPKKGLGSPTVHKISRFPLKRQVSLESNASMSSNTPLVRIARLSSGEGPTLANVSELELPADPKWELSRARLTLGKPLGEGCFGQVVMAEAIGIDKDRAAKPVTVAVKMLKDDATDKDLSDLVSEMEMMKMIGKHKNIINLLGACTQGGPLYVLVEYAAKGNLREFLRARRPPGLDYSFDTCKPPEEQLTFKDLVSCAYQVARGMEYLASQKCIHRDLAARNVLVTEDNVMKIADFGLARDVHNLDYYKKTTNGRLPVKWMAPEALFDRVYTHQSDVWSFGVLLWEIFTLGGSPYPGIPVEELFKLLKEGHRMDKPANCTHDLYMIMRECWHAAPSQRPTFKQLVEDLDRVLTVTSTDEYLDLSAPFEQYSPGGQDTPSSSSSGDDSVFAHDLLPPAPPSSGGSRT
Procedure, shortened: as §1

Gal4-VP16 = assay type: cell-based; settings: 1 µM; vs. DMSO ctrl; single replicates n=1-3
[6] = tested on: ATF6 activity in Hela ATF6 reporter cells; experiment: Endoplasmic reticulum stress assay (ATF6 Renilla luciferase reporter, tunicamycin); assay type: cell-based; settings: for activity at 1 µM: Homo sapiens, HeLa, single replicates n=1 to n=5, read-out: ER stress [rel. ATF6 activity]
Procedure, shortened: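 HeLa ATF6 Renilla reporter cells were pretreated 4 h with compounds in 0.1% DMSO, then stimulated with tunicamycin (100 ng/mL) for 18 h. Renilla luminescence (DualGlo) was normalized to 0.1% DMSO control; five independent experiments.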

ABL1 = molecular target: T10, ABL1 (Homo sapiens, UniProt P00519); experiment: Liability panel screening by DSF: ABL1; assay type: binding; settings: DSF, 20 µM, n=2; read-out: Mean ΔTM ABL1
T10 construct: made in house
T10 sequence (P00519 whole entry, species assumed): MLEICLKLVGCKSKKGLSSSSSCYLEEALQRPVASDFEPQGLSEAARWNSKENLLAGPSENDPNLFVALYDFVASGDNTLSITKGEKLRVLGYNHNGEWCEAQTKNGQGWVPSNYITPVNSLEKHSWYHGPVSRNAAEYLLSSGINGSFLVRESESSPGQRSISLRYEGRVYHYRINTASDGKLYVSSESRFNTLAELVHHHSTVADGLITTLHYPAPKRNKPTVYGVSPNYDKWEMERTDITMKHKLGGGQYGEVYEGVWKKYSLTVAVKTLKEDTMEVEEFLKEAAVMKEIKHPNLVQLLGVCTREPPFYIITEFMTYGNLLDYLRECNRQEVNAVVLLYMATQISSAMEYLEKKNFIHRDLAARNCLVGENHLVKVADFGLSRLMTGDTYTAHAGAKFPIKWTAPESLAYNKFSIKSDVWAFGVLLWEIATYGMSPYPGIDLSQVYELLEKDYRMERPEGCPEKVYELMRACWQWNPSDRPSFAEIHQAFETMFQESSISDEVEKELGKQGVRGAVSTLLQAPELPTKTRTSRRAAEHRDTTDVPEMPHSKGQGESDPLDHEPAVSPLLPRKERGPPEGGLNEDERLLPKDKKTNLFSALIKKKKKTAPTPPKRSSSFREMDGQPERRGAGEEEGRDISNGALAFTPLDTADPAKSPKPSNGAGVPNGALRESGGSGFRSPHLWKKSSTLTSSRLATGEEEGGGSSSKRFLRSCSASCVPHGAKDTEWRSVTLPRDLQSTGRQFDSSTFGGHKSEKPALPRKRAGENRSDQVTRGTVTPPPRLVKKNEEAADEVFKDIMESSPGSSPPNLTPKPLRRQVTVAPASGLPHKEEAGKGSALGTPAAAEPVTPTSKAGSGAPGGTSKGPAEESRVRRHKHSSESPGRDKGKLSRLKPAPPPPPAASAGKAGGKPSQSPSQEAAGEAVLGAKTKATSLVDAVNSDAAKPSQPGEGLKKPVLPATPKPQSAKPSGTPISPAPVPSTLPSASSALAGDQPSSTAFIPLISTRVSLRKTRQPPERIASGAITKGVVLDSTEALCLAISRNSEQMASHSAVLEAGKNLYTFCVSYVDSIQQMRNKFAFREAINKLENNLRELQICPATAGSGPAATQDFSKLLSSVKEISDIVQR
Procedure, shortened: as §1

NR3C3 (PR) = settings: (lit.); ref Supplementary Table 1; read-out: Potency [nM] EC50, NR3C3 (PR); cited from earlier work

| SMILES | ΔTm at 20 µM (CDK2) | Necrosis induction [NI] (HEK293T cells [1]) | ΔTm at 20 µM (BRD4) | ΔTm at 20 µM (TRIM24) | ΔTm at 20 µM (GSK3B) | ΔTm at 20 µM (CSNK1D) | Apoptosis induction [AI] (HEK293T cells [4]) | Mean NFκB response ([5]; 1 µM, 1,5 h) | Mean NFκB response ([5]; 1 µM, 4,5 h) | Mean NFκB response ([5]; 1 µM, 7,5 h) | Mean NFκB response ([5]; 1 µM, 10,5 h) | Mean NFκB response ([5]; 1 µM, 13,5 h) | Mean NFκB response ([5]; 1 µM, 16,6 h) | Mean NFκB response ([5]; 1 µM, 19,5 h) | Mean NFκB response ([5]; 1 µM, 22,5 h) | Mean NFκB response ([5]; 1 µM, 3 h) | Mean NFκB response ([5]; 1 µM, 6 h) | Mean NFκB response ([5]; 1 µM, 9 h) | Mean NFκB response ([5]; 1 µM, 12 h) | Mean NFκB response ([5]; 1 µM, 15 h) | further results |
| --- | --- | --- | --- | --- | --- | --- | --- | --- | --- | --- | --- | --- | --- | --- | --- | --- | --- | --- | --- | --- | --- |
| CC(=O)OCC(=O)[C@@]1(O)CC[C@H]2[C@@H]3CCC4=CC(=O)CC[C@]4(C)[C@@]3(F)[C@@H](O)C[C@@]21C [Fludrocortisone acetate] | -0.73 °C | 1.13 and 1.14 and 1.54 and 1.19 | -0.79 °C | -0.96 °C | -0.61 °C | -0.08 °C | 1.14 and 1.39 and 1.56 and 1.37 and 1.13 and 1.61 | 3820.94 GFP+-cells/confluence ∙ 1000 | 4296.72 GFP+-cells/confluence ∙ 1000 | 6095.26 GFP+-cells/confluence ∙ 1000 | 8052.10 GFP+-cells/confluence ∙ 1000 | 9784.85 GFP+-cells/confluence ∙ 1000 | 11376.50 GFP+-cells/confluence ∙ 1000 | 12926.78 GFP+-cells/confluence ∙ 1000 | 13912.05 GFP+-cells/confluence ∙ 1000 | 3762.70 GFP+-cells/confluence ∙ 1000 | 5124.39 GFP+-cells/confluence ∙ 1000 | 7003.20 GFP+-cells/confluence ∙ 1000 | 8806.82 GFP+-cells/confluence ∙ 1000 | 10595.86 GFP+-cells/confluence ∙ 1000 | Metabolic activity [MA] (HEK293T cells [2]): 1.08 (2×) and 0.93 and 1.06 and 1.01 and 0.96 and 1.04 and 1.00; EC50 (NR3C1 (GR); (lit.), ref Supplementary Table 1, read-out: Potency [nM] EC50, NR3C1 (GR)): 4 nM; rel. activity from literature, NR3C1 (GR): fold activation (NR3C1 (GR)): ~ 1000 fold; Growth rate [GR] (HEK293T cells [3]): 1.03 and 5.01 and 1.16 and 1.40 and 1.04 and 0.96 and 0.90 and 1.39 and 3.00 and 9.23; rel. activity from literature, NR3C2 (MR): fold activation (NR3C2 (MR)): ~ 41 fold; Mean NFκB response ([5]; 1 µM, 18 h): 12286.70 GFP+-cells/confluence ∙ 1000; Mean NFκB response ([5]; 1 µM, 21 h): 13535.05 GFP+-cells/confluence ∙ 1000; Mean NFκB response ([5]; 1 µM, 24 h): 14315.67 GFP+-cells/confluence ∙ 1000; NF-κB activity (inflammatory response to ionomycin/PMA) ([5]; HEK293 NF-κB reporter cells, compounds at recommended concentrations, imaged over 24 h, n = 3): consistently delayed and strongly diminished NF-κB activity; ΔTm at 20 µM (BRPF1): -0.43 °C; ΔTm at 20 µM (MAPK1): 0.55 °C; ΔTm at 20 µM (AURKA): 0.09 °C; ΔTm at 20 µM (FGFR3): -0.06 °C; VP16 control [fold reporter gene activity] (Gal4-VP16): 0.96 fold reporter gene activity and 0.81 fold reporter gene activity and 0.89 fold reporter gene activity; ATF6 activity (tunicamycin-induced endoplasmic reticulum stress) ([6]; Hela ATF6 reporter cells, tunicamycin 100 ng/mL, 18 h, compounds at recommended concentrations, n = 5): Consistently weaker ATF6 activity; activity at 1 µM [6]: 82%; ΔTm at 20 µM (ABL1): -0.12 °C |
| N#Cc1ccc(N2N=C3c4ccc(C(=O)O)cc4CC[C@@H]3[C@@H]2C2CCCC2)cc1Cl [PF-03882845] | -2.04 °C | 1.10 and 0.88 and 0.95 and 1.46 | 0 °C | 1.43 °C | 0 °C | -4.9 °C | 0.00 (4×) and 0.46 and 0.70 | 2659.67 GFP+-cells/confluence ∙ 1000 | 3143.33 GFP+-cells/confluence ∙ 1000 | 6360.00 GFP+-cells/confluence ∙ 1000 | 17053.33 GFP+-cells/confluence ∙ 1000 | 25306.67 GFP+-cells/confluence ∙ 1000 | 31613.33 GFP+-cells/confluence ∙ 1000 | 36320.00 GFP+-cells/confluence ∙ 1000 | 39133.33 GFP+-cells/confluence ∙ 1000 | 2686.67 GFP+-cells/confluence ∙ 1000 | 3810.00 GFP+-cells/confluence ∙ 1000 | 11590.00 GFP+-cells/confluence ∙ 1000 | 21213.33 GFP+-cells/confluence ∙ 1000 | 28830.00 GFP+-cells/confluence ∙ 1000 | EC50 (NR3C3 (PR)): 416 nM; EC50 (NR3C2 (MR); (lit.), ref Supplementary Table 1, read-out: Potency [nM] EC50, NR3C2 (MR)): 9 nM; Mean NFκB response ([5]; 1 µM, 18 h): 34136.67 GFP+-cells/confluence ∙ 1000; Mean NFκB response ([5]; 1 µM, 21 h): 37763.33 GFP+-cells/confluence ∙ 1000; Mean NFκB response ([5]; 1 µM, 24 h): 40546.67 GFP+-cells/confluence ∙ 1000; ΔTm at 20 µM (BRPF1): -8.37 °C; ΔTm at 20 µM (MAPK1): -9.49 °C; ΔTm at 20 µM (AURKA): 0.42 °C; activity at 1 µM [6]: 94%; ΔTm at 20 µM (ABL1): -2.47 °C |
